ChEMBL document CHEMBL4033720, “Discovery of novel cyclic peptide inhibitors of dengue virus NS2B-NS3 protease with antiviral activity” (Bioorg Med Chem Lett, 2017)

How the values were obtained:
[1] = tested on: dengue virus type 2; assay: Antiviral activity against dengue virus 2 infected in BHK21 cells assessed as inhibition of virus-induced cytopathic effect after 4 days by resazurin dye based method; format: functional, cell-based
[2] = Selectivity index, ratio of CC50 for toxicity in BHK21 cells to EC50 for antiviral activity against dengue virus 2 infected in BHK21 cells; format: cell-based; conditions: hamster, read-out: Ratio CC50/EC50
[3] = Inhibition of dengue virus 2 NS2B-NS3 protease pre-incubated for 10 mins before Boc-Gly-Arg-Arg-peptidyl-4-methylcoumaryl-7-amide substrate addition and measured after 2 hrs by fluorescence based assay; set-up: species or system dengue virus type 2
[4] = Toxicity in BHK21 cells assessed a reduction in cell viability after 4 days by resazurin dye based method; set-up: species or system Mesocricetus auratus, BHK-21; conditions: hamster
[5] = Stability assessed as dengue virus 2 NS2B-NS3 protease-mediated compound degradation at 200 uM in presence of […] incubated for 0 to 22.5 hrs by LC-MS method; format: ADME; conditions: dengue virus type 2, 200 µM
[6] = Stability assessed as dengue virus 2 NS2B-NS3 protease-mediated compound degradation at 200 uM in presence of 100 nM enzyme incubated for 24 hrs by LC-MS method; format: ADME; conditions: dengue virus type 2, 24 h
[7] = Stability assessed as dengue virus 2 NS2B-NS3 protease-mediated compound degradation at 200 uM in presence of […] incubated for 22.5 hrs by LC-MS method; format: ADME; conditions: dengue virus type 2, 22.5 h
[8] = Stability assessed as dengue virus 2 NS2B-NS3 protease-mediated compound degradation by measuring linear peptide with P1 C-terminus and P' N-terminus at 200 uM in presence of […] incubated for 0 to 22.5 hrs by LC-MS method; format: ADME; conditions: dengue virus type 2, 200 µM
[9] = Dengue virus, BHK-21, 96 h, read-out: EC50

IC50 [3]	Stability [5]	Stability [6]	Stability [7]	Drug metabolism [8]	SMILES	EC50 [1, 9]	selectivity ratio [2]	CC50 at 96 h [4]	EC50 [1]
1.1 µM	–	–	–	–	N=C(N)NCCC[C@@H]1NC(=O)[C@H](CCCNC(=N)N)NC(=O)[C@@H](CCCNC(=N)N)NC(=O)[C@@H](Cc2ccc3ccccc3c2)NC(=O)[C@H](Cc2ccccc2)NC(=O)[C@H](CCc2ccccc2)NC(=O)[C@@H](Cc2ccc3ccccc3c2)NC(=O)[C@H](CCCCN)NC1=O	2 µM	> 10	24 µM	–
1.7 µM	Unstable	Stable	–	–	C[C@@H]1NC(=O)[C@H](CCCCN)NC(=O)[C@H](CCCNC(=N)N)NC(=O)[C@H](CCCNC(=N)N)NC(=O)[C@@H](CCCNC(=N)N)NC(=O)[C@@H](Cc2ccccc2)NC(=O)[C@H](Cc2cccc3ccccc23)NC(=O)[C@H](CCc2ccccc2)NC1=O	11.8 µM	–	134 µM	–
1.7 µM	–	–	–	–	N=C(N)NCCC[C@@H]1NC(=O)[C@H](CCCNC(=N)N)NC(=O)[C@@H](CCCNC(=N)N)NC(=O)[C@@H](Cc2ccc3ccccc3c2)NC(=O)[C@H](Cc2ccccc2)NC(=O)[C@H](CCc2ccccc2)NC(=O)[C@@H](Cc2ccccc2)NC(=O)[C@H](CCCCN)NC1=O	4.6 µM	–	86 µM	–
2.1 µM	–	–	Stable	–	C[C@@H]1NC[C@H](CCCCN)NC(=O)[C@H](CCCNC(=N)N)NC(=O)[C@H](CCCNC(=N)N)NC(=O)[C@@H](CCCNC(=N)N)NC(=O)[C@@H](Cc2ccccc2)NC(=O)[C@H](Cc2cccc3ccccc23)NC(=O)[C@H](CCc2ccccc2)NC1=O	11.4 µM	–	129 µM	–
2.3 µM	–	–	–	–	N=C(N)NCCC[C@@H]1NC(=O)[C@H](CCCNC(=N)N)NC(=O)[C@@H](CCCNC(=N)N)NC(=O)[C@@H](CCCNC(=N)N)NC(=O)[C@H](CO)NC(=O)[C@H](Cc2ccc(-c3ccccc3)cc2)NC(=O)[C@H](CO)NC(=O)[C@H](CCCCN)NC1=O	141 µM	–	> 400 µM	–
0.95 µM	Unstable	–	–	–	N=C(N)NCCC[C@@H]1NC(=O)[C@H](CCCCN)NC(=O)[C@H]2CCCN2C(=O)[C@@H](Cc2ccccc2)NC(=O)[C@H](CO)NC(=O)[C@H](CCc2ccccc2)NC(=O)[C@H](CO)NC(=O)[C@H](CCCCN)NC1=O	–	–	–	Not Active
1.6 µM	Unstable	–	–	Metabolite_Detected	N=C(N)NCCC[C@@H]1NC(=O)[C@H](CCCNC(=N)N)NC(=O)[C@@H](CCCNC(=N)N)NC(=O)[C@@H](Cc2ccccc2)NC(=O)[C@H](Cc2cccc3ccccc23)NC(=O)[C@H](CCc2ccccc2)NC(=O)[C@H](CO)NC(=O)[C@H](CCCCN)NC1=O	23.2 µM	–	233 µM	–
